Measured values taken from article PMC8500670, “A selective WDR5 degrader inhibits acute myeloid leukemia in patient-derived mouse models” (Science translational medicine, 2021).

Experiments:
Test in all cases: biochemical
Design in all cases: protein methyltransferase inhibition panel, single concentration, duplicate
[1] = biological target: T1, GLP (Homo sapiens, UniProt Q9H9B1)
T1 construct: gene EHMT1
T1 sequence (Q9H9B1 1-1298): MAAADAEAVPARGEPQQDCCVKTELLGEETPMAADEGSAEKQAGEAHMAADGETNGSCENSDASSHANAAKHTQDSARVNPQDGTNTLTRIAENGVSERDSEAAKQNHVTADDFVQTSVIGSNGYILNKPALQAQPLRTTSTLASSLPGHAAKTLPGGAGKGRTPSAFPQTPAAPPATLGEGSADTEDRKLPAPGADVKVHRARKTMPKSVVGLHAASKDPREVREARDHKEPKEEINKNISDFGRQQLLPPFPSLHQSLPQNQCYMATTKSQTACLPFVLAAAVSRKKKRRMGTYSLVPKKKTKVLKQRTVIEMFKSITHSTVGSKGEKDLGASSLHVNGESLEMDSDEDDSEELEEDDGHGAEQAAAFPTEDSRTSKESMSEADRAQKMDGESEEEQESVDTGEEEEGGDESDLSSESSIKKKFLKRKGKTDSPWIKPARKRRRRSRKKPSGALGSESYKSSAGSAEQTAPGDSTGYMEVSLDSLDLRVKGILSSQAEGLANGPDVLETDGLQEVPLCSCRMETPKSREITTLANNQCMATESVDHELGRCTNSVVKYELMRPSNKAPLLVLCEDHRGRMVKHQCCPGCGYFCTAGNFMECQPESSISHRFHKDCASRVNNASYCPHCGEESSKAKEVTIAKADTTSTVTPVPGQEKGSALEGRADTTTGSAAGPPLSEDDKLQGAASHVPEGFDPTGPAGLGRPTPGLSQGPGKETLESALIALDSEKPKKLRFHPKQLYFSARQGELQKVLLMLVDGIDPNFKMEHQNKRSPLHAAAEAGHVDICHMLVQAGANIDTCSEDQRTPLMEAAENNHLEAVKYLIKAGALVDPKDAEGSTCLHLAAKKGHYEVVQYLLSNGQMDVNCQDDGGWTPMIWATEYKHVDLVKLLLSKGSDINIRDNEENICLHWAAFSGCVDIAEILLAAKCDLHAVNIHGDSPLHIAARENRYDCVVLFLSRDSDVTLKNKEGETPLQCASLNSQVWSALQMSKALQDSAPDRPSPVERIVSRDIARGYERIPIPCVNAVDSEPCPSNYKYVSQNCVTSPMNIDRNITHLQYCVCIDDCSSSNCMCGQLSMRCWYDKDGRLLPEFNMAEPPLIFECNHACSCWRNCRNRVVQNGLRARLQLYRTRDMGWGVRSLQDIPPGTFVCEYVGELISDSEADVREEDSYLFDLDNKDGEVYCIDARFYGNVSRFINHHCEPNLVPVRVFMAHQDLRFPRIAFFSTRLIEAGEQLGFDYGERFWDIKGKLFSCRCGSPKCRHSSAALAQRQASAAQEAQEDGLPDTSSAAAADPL
Experimental: (§1) We next assessed selectivity of MS67 against 22 protein methyltransferases (table S2) and a broad panel of common drug targets including 45 kinases (table S3) and 44 G protein–coupled receptors (GPCR), ion channels, and transporters (table S4). […] We subsequently determined that MS67 had moderate binding affinity (Ki = 1.0 ± 0.8 μM) to Sigma 2 receptor (fig. S10).

[2] = biological target: PRMT3 (Homo sapiens, UniProt O60678)
Experimental: as §1

[3] = biological target: T2, NSD2 (Homo sapiens, UniProt O96028)
T2 sequence (O96028 1-1365): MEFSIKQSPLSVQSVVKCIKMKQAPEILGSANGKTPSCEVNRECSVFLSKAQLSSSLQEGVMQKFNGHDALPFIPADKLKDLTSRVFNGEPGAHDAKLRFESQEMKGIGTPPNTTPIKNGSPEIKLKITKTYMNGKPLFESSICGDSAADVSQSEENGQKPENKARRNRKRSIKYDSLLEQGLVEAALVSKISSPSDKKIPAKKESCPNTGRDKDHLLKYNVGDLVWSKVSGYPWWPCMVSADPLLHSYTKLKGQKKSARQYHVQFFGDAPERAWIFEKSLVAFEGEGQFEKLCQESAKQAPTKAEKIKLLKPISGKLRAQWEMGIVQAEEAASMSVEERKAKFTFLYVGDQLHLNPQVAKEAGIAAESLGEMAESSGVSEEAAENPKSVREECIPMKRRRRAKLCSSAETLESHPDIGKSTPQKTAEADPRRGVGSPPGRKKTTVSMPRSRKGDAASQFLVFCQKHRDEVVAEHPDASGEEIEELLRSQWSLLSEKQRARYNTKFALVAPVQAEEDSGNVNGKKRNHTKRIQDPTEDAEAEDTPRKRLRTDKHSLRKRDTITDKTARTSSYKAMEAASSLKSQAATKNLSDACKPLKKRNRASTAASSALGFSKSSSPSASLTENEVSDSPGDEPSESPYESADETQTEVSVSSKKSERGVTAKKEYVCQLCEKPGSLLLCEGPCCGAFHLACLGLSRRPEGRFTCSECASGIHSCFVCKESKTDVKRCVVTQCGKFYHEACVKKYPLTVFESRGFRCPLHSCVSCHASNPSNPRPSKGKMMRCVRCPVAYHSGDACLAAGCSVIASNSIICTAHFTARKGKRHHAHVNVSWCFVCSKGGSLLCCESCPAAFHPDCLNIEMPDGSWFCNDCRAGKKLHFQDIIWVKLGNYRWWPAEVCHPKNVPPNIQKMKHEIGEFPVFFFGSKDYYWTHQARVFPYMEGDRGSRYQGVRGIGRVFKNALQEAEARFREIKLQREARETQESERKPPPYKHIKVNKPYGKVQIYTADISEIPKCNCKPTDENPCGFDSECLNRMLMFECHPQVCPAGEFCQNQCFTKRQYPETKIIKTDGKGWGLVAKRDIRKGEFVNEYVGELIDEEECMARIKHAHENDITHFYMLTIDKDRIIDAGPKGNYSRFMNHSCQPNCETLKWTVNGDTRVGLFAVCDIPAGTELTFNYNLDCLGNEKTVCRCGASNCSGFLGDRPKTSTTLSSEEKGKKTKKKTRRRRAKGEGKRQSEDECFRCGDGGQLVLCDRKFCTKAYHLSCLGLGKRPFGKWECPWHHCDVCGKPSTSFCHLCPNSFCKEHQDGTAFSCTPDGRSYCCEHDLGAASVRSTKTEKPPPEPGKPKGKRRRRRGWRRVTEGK
Experimental: as §1

[4] = biological target: PRMT1 (Homo sapiens, UniProt Q99873)
Experimental: as §1

Measured: inhibition at 10 µM

Chain of PRMT3 (O60678 whole entry): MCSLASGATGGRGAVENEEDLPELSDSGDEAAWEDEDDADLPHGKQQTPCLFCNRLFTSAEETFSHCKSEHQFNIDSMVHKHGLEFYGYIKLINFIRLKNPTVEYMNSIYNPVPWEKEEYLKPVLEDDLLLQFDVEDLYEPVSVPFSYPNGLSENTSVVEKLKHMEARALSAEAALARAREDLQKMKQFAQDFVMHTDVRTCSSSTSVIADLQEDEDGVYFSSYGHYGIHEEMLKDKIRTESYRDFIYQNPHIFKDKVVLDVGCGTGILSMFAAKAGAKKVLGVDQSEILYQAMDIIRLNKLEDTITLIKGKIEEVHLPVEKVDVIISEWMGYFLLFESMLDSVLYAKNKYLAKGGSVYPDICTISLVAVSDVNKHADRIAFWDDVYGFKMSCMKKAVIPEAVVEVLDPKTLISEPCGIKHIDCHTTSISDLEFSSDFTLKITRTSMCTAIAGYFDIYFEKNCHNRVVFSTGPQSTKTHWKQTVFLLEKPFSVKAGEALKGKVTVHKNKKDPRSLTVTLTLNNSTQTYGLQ
Chain of PRMT1 (Q99873 whole entry): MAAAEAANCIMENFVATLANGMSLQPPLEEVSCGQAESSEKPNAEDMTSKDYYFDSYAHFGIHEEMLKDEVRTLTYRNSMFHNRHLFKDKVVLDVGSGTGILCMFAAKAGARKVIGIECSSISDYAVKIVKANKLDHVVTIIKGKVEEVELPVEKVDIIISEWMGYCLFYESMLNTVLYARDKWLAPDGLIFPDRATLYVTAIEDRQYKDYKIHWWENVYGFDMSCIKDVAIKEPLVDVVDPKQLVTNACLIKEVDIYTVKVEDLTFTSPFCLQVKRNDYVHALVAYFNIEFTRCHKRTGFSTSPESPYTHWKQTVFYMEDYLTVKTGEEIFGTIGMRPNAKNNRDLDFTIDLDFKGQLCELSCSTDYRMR

Cc1ncsc1-c1ccc([C@H](C)NC(=O)[C@@H]2C[C@@H](O)CN2C(=O)[C@@H](NC(=O)CNC(=O)c2ccc(F)c(-c3ccc(N4C[C@@H](C)N(C)[C@@H](C)C4)c(NC(=O)c4c[nH]c(=O)cc4C(F)(F)F)c3)c2)C(C)(C)C)cc1 [MS67]
< 10%: all assays above
